The values below are quoted from earlier work in US20070128260A1, “Aqueous polymer dispersions for stabilizing actives” (priority 2005, published 2007).

Structures can show the parent of a compound that is named as a salt. Where two headings read alike, the source gives them in different places.

Regarding `Nc1nc(NC2CC2)c2ncn([C@H]3C=C[C@@H](CO)C3)c2n1` [Abacavir sulfate], where the note is “25° C.”, the water sol. is recorded as 77 mg/mL. In the case of `Nc1nc2c(ncn2COCCO)c(=O)[nH]1` [Acylovir], under “37° C.”, the water sol. is on record as 2.5 mg/mL. Regarding `CC(C)CN(C[C@@H](O)[C@H](Cc1ccccc1)NC(=O)O[C@H]1CCOC1)S(=O)(=O)c1ccc(N)cc1` [Amprenavir], where the note is “25° C.”, the water sol. is reported as 0.04 mg/mL. Turning to `Nc1ccn([C@@H]2CS[C@H](CO)O2)c(=O)n1` [Lamivudine], the water sol. (20° C.) is listed as 70 mg/mL.

On to `CC(=O)N[C@H]1[C@H]([C@H](O)[C@H](O)CO)OC(C(=O)O)=C[C@@H]1N=C(N)N` [Zanamivir], for which the water sol. (20° C.) is 18 mg/mL. Regarding `Cc1cn([C@H]2C[C@H](N=[N+]=[N-])[C@@H](CO)O2)c(=O)[nH]c1=O` [Zidovudine], the water sol. (25° C.) is given as 20.1 mg/mL.

`CC(C)CN(C[C@@H](OP(=O)(O)O)[C@H](Cc1ccccc1)NC(=O)O[C@H]1CCOC1)S(=O)(=O)c1ccc(N)cc1` [fosamprenavir]: the water sol. (25° C.) was 0.31 mg/mL. Turning to `CC(C)[C@H](N)C(=O)OCCOCn1cnc2c(=O)[nH]c(N)nc21` [valacyclovir], the water sol. (25° C.) is 174 mg/mL.
